Experimental findings from US20160002217A1, “FUNGICIDAL 3--OXADIAZOLONE DERIVATIVES” (BAYER CROPSCIENCE AG, priority 2013, published 2016) are described below.

Structures are written as SMILES.

One data set has as its system Uromyces appendiculatus. Briefly: In vivo preventive test on Uromyces appendiculatus (bean rust). The note with it: bean plants, preventive spray, 500 ppm of active ingredient, evaluated 11 days after inoculation. On the procedure: (§1) The tested active ingredients are prepared by homogenization in a mixture of acetone/Dimethyl sulfoxide/Tween®, and then diluted with water to obtain the desired active material concentration.
The young plants of bean are treated by spraying the active ingredient prepared as described above. Control plants are treated only with an aqueous solution of acetone/Dimethyl sulfoxide/Tween®.
After 24 hours, the plants are contaminated by spraying the leaves with an aqueous suspension of Uromyces appendiculatus spores. The contaminated bean plants are incubated for 24 hours at 20° C. and at 100% relative humidity and then for 10 days at 20° C. and at 70-80% relative humidity.
(§2) The test is evaluated 11 days after the inoculation. 0% means an efficacy which corresponds to that of the control plants while an efficacy of 100% means that no disease is observed.

The next data set has as its system Pyricularia oryzae. The format is in vivo. The settings on record: rice plants, preventive spray, 500 ppm of active ingredient, evaluated 6 days after inoculation.
Data set [1] is described as follows: Measurement of log P values by HPLC on reversed phase columns (EEC directive 79/831 Annex V.A8). The settings on record: pH 2.7.
A further data set relates to Phytophthora infestans. In kind it is in vivo. The settings on record: tomato plants, preventive spray, 500 ppm of active ingredient, evaluated 5 days after inoculation.
Another data set relates to Puccinia recondita. Briefly: In vivo preventive test on Puccinia recondita (brown rust on wheat). The note with it: wheat plants, preventive spray, 500 ppm of active ingredient, evaluated 11 days after inoculation. On the procedure:
as §1
The young plants of wheat are treated by spraying the active ingredient prepared as described above. Control plants are treated only with an aqueous solution of acetone/Dimethyl sulfoxide/Tween®.
After 24 hours, the plants are contaminated by spraying the leaves with an aqueous suspension of Puccinia recondita spores. The contaminated wheat plants are incubated for 24 hours at 20° C. and at 100% relative humidity and then for 10 days at 20° C. and at 70-80% relative humidity.
as §2

On to `Cn1oc(=O)nc1/C(=N\OCc1cccc(NC(=O)OC(C)(C)C)n1)c1ccccn1` [Example 22, tert-butyl {6-[({[(Z)-(2-methyl-5-oxo-2,5-dihydro-1,2,4-oxadiazol-3-yl)(pyridine-2-yl)methylene]amino}oxy)methyl]pyridin-2-yl}carbamate], for which the “% efficacy” value in the data set on Uromyces appendiculatus was 100%; in the data set with Pyricularia oryzae it was 75%; in the data set with Phytophthora infestans it was 99%; in the data set on Puccinia recondita it was 88%. This compound gave a chromatographic logP in data set [1] of 2.68.
